Measurements reported in patent US20240252506A1 (Hoffmann-La Roche Inc., priority 2021, published 2024).
Values after ≈ are worked out from the molar mass of the structure shown. Structures can show the parent of a compound that is named as a salt.

Test system: Escherichia coli ATCC 25922
Experiment: Minimal Inhibitory Concentration (MIC) determination, broth microdilution (CLSI M07-A10)
Type: cell-based
Conditions: Escherichia coli, ATCC25922, strain Escherichia coli ATCC 25922, 18-24 hours at 35±2° C., lowest concentration for complete growth inhibition (no visible growth), read-out: Escherichia coli growth inhibition MIC
Procedure, shortened: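 Broth microdilution per CLSI M07-A10; compounds in 2-fold serial dilutions; inoculum from 0.5 McFarland suspension diluted 1:200 in broth. Incubated 18-24 h at 35±2° C in ambient air; MIC (μg/mL) taken as lowest concentration giving no visible growth.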

Row | Structure (SMILES) | MIC [µg/mL]
1 | CC(=O)N(C)CCn1nnc2c(F)c3c(c(F)c21)CC(CN1CCC2(CC1)CN(c1cnc4c(n1)NC(=O)CO4)C(=O)O2)C3 (single isomer, unassigned) [Example 156, N-[2-[4,8-difluoro-6-[[2-oxo-3-(3-oxo-4H-pyrazino[2,3-b][1,4]oxazin-6-yl)-1-oxa-3,8-diazaspiro[4.5]decan-8-yl]methyl]-6,7-dihydro-5H-cyclopenta[f]benzotriazol-1-yl]ethyl]-N-methyl-acetamide] | 8 (≈ 13.1 µM)
2 | CN(CCn1nnc2c(F)c3c(c(F)c21)CC(CN1CCC2(CC1)CN(c1cnc4c(n1)NC(=O)CO4)C(=O)O2)C3)C(=O)CN (single isomer, unassigned) [Example 166, 2-Amino-N-methyl-N-[2-[4,8-difluoro-6-[[2-oxo-3-(3-oxo-4H-pyrazino[2,3-b][1,4]oxazin-6-yl)-1-oxa-3,8-diazaspiro[4.5]decan-8-yl]methyl]-6,7-dihydro-5H-cyclopenta[f]benzotriazol-1-yl]ethyl]acetamide] | 1 (≈ 1.6 µM)
3 | Cc1nc2c(F)c3c(c(F)c2[nH]1)CC(CNCCC1CN(c2cnc4c(n2)NC(=O)CO4)C(=O)O1)C3 (centres unmarked) [Example 1, 6-[5-[2-[(4,8-Difluoro-2-methyl-3,5,6,7-tetrahydrocyclopenta[f]benzimidazol-6-yl)methylamino]ethyl]-2-oxo-oxazolidin-3-yl]-4H-pyrazino[2,3-b][1,4]oxazin-3-one] | 0.5 (≈ 1 µM)
4 | CN(C)Cc1nc2c(F)c3c(c(F)c2[nH]1)CC(CNCCC1CN(c2cnc4c(n2)NC(=O)CO4)C(=O)O1)C3 (centres unmarked) [Example 2, 6-[5-[2-[[2-[(dimethylamino)methyl]-4,8-difluoro-3,5,6,7-tetrahydrocyclopenta[f]benzimidazol-6-yl]methylamino]ethyl]-2-oxo-oxazolidin-3-yl]-4H-pyrazino[2,3-b][1,4]oxazin-3-one] | 0.5 (≈ 0.922 µM)
5 | CC(C)(O)c1nc2c(F)c3c(c(F)c2[nH]1)CC(CN1CCC2(CC1)CN(c1cnc4c(n1)NC(=O)CO4)C(=O)O2)C3 [Example 4, 6-[8-[[4,8-difluoro-2-(1-hydroxy-1-methyl-ethyl)-3,5,6,7-tetrahydrocyclopenta[f]benzimidazol-6-yl]methyl]-2-oxo-1-oxa-3,8-diazaspiro[4.5]decan-3-yl]-4H-pyrazino[2,3-b][1,4]oxazin-3-one] | 0.5 (≈ 0.878 µM)
6 | O=C1COc2ncc(N3CC4(CCN(CC5Cc6c(c(F)c7[nH]c(CN8CCS(=O)(=O)CC8)nc7c6F)C5)CC4)OC3=O)nc2N1 [Example 5, 6-[8-[[2-[(1,1-dioxo-1,4-thiazinan-4-yl)methyl]-4,8-difluoro-3,5,6,7-tetrahydrocyclopenta[f]benzimidazol-6-yl]methyl]-2-oxo-1-oxa-3,8-diazaspiro[4.5]decan-3-yl]-4H-pyrazino[2,3-b][1,4]oxazin-3-one] | 2 (≈ 3.04 µM)
7 | CN1CCOC(c2nc3c(F)c4c(c(F)c3[nH]2)CC(CN2CCC3(CC2)CN(c2cnc5c(n2)NC(=O)CO5)C(=O)O3)C4)C1 (centres unmarked) [Example 6, 6-[8-[[4,8-difluoro-2-(4-methylmorpholin-2-yl)-3,5,6,7-tetrahydrocyclopenta[f]benzimidazol-6-yl]methyl]-2-oxo-1-oxa-3,8-diazaspiro[4.5]decan-3-yl]-4H-pyrazino[2,3-b][1,4]oxazin-3-one] | 1 (≈ 1.64 µM)
8 | O=C1COc2ncc(N3CC4(CCN(CC5Cc6c(c(F)c7[nH]c(CN8CCOCC8)nc7c6F)C5)CC4)OC3=O)nc2N1 [Example 8, 6-[8-[[4,8-difluoro-2-(morpholinomethyl)-3,5,6,7-tetrahydrocyclopenta[f]benzimidazol-6-yl]methyl]-2-oxo-1-oxa-3,8-diazaspiro[4.5]decan-3-yl]-4H-pyrazino[2,3-b][1,4]oxazin-3-one] | 1 (≈ 1.64 µM)

Now from value to compound:

Row | MIC [µg/mL] | Structure (SMILES)
9 | 0.25 (≈ 0.44 µM) | CN(C)Cc1nc2c(F)c3c(c(F)c2[nH]1)CC(CN1CCC2(CC1)CN(c1cnc4c(n1)NC(=O)CO4)C(=O)O2)C3 [Example 3, 6-[8-[[2-[(dimethylamino)methyl]-4,8-difluoro-3,5,6,7-tetrahydrocyclopenta[f]benzimidazol-6-yl]methyl]-2-oxo-1-oxa-3,8-diazaspiro[4.5]decan-3-yl]-4H-pyrazino[2,3-b][1,4]oxazin-3-one]
10 | 0.25 | CNCCc1nc2c(F)c3c(c(F)c2[nH]1)CC(CN1CCC2(CC1)CN(c1cnc4c(n1)NC(=O)CO4)C(=O)O2)C3.O=C(O)C(F)(F)F [Example 13, 6-[8-[[4,8-difluoro-2-[2-(methylamino)ethyl]-3,5,6,7-tetrahydrocyclopenta[f]benzimidazol-6-yl]methyl]-2-oxo-1-oxa-3,8-diazaspiro[4.5]decan-3-yl]-4H-pyrazino[2,3-b][1,4]oxazin-3-one; 2,2,2-trifluoroacetic acid]
11 | 0.25 | O=C(O)C(F)(F)F.O=C1COc2ccc(N3CC4(CCN(CC5Cc6c(c(F)c7[nH]c([C@H]8CCNC8)nc7c6F)C5)CC4)OC3=O)nc2N1 [Example 15, 6-[8-[[4,8-difluoro-2-[(3S)-pyrrolidin-3-yl]-3,5,6,7-tetrahydrocyclopenta[f]benzimidazol-6-yl]methyl]-2-oxo-1-oxa-3,8-diazaspiro[4.5]decan-3-yl]-4H-pyrido[3,2-b][1,4]oxazin-3-one; 2,2,2-trifluoroacetic acid]
12 | 0.125 (≈ 0.215 µM) | CN(C)CCc1nc2c(F)c3c(c(F)c2[nH]1)CC(CN1CCC2(CC1)CN(c1cnc4c(n1)NC(=O)CO4)C(=O)O2)C3 [Example 7, 6-[8-[[2-[2-(dimethylamino)ethyl]-4,8-difluoro-3,5,6,7-tetrahydrocyclopenta[f]benzimidazol-6-yl]methyl]-2-oxo-1-oxa-3,8-diazaspiro[4.5]decan-3-yl]-4H-pyrazino[2,3-b][1,4]oxazin-3-one]
13 | 0.125 (≈ 0.225 µM) | CNCc1nc2c(F)c3c(c(F)c2[nH]1)CC(CN1CCC2(CC1)CN(c1cnc4c(n1)NC(=O)CO4)C(=O)O2)C3 [Example 9, 6-[8-[[4,8-Difluoro-2-(methylaminomethyl)-3,5,6,7-tetrahydrocyclopenta[f]benzimidazol-6-yl]methyl]-2-oxo-1-oxa-3,8-diazaspiro[4.5]decan-3-yl]-4H-pyrazino[2,3-b][1,4]oxazin-3-one]
14 | 0.125 | NCc1nc2c(F)c3c(c(F)c2[nH]1)CC(CN1CCC2(CC1)CN(c1cnc4c(n1)NC(=O)CO4)C(=O)O2)C3.O=C(O)C(F)(F)F [Example 10, 6-[8-[[2-(aminomethyl)-4,8-difluoro-3,5,6,7-tetrahydrocyclopenta[f]benzimidazol-6-yl]methyl]-2-oxo-1-oxa-3,8-diazaspiro[4.5]decan-3-yl]-4H-pyrazino[2,3-b][1,4]oxazin-3-one; 2,2,2-trifluoroacetic acid]
15 | 0.125 | O=C(O)C(F)(F)F.O=C1COc2ncc(N3CC4(CCN(CC5Cc6c(c(F)c7[nH]c([C@@H]8CCCN8)nc7c6F)C5)CC4)OC3=O)nc2N1 [Example 11, 6-[8-[[4,8-difluoro-2-[(2S)-pyrrolidin-2-yl]-3,5,6,7-tetrahydrocyclopenta[f]benzimidazol-6-yl]methyl]-2-oxo-1-oxa-3,8-diazaspiro[4.5]decan-3-yl]-4H-pyrazino[2,3-b][1,4]oxazin-3-one; 2,2,2-trifluoroacetic acid]
16 | 0.125 | CNCc1nc2c(F)c3c(cc2[nH]1)CC(CN1CCC2(CC1)CN(c1cnc4c(n1)NC(=O)CO4)C(=O)O2)C3.O=C(O)C(F)(F)F (centres unmarked) [Example 12, 6-[8-[[8-fluoro-2-(methylaminomethyl)-1,5,6,7-tetrahydrocyclopenta[f]benzimidazol-6-yl]methyl]-2-oxo-1-oxa-3,8-diazaspiro[4.5]decan-3-yl]-4H-pyrazino[2,3-b][1,4]oxazin-3-one; 2,2,2-trifluoroacetic acid]

Same assay, conditions: strain Escherichia coli ATCC 25922, 18-24 hours at 35±2° C., lowest concentration for complete growth inhibition (no visible growth)

Row | Escherichia coli growth inhibition MIC [µg/mL] | Structure (SMILES)
17 | 4 | CC(=O)N(C)CCn1nnc2c(F)c3c(c(F)c21)CC(CN1CCC2(CC1)CN(c1cnc4c(n1)NC(=O)CO4)C(=O)O2)C3 (single isomer, unassigned) [Example 157, N-[2-[4,8-difluoro-6-[[2-oxo-3-(3-oxo-4H-pyrazino[2,3-b][1,4]oxazin-6-yl)-1-oxa-3,8-diazaspiro[4.5]decan-8-yl]methyl]-6,7-dihydro-5H-cyclopenta[f]benzotriazol-1-yl]ethyl]-N-methyl-acetamide]
18 | 1 | CN(CCn1nnc2c(F)c3c(c(F)c21)CC(CN1CCC2(CC1)CN(c1cnc4c(n1)NC(=O)CO4)C(=O)O2)C3)C(=O)CN (single isomer, unassigned) [Example 167, 2-Amino-N-methyl-N-[2-[4,8-difluoro-6-[[2-oxo-3-(3-oxo-4H-pyrazino[2,3-b][1,4]oxazin-6-yl)-1-oxa-3,8-diazaspiro[4.5]decan-8-yl]methyl]-6,7-dihydro-5H-cyclopenta[f]benzotriazol-1-yl]ethyl]acetamide]

Same assay, conditions: strain Escherichia coli ATCC 25922, 18-24 hours at 35±2° C., lowest concentration for complete growth inhibition (no visible growth), dihydrochloride

Row | Structure (SMILES) | Escherichia coli growth inhibition MIC [µg/mL]
19 | NCCn1nc2cc(F)c3c(c2n1)CC(CN1CCC2(CC1)CN(c1ccc4c(n1)NC(=O)CO4)C(=O)O2)C3 (single isomer, unassigned) [Example 170, 6-[2-Oxo-8-[[2-(2-aminoethyl)-5-fluoro-7,8-dihydro-6H-cyclopenta[e]benzotriazol-7-yl]methyl]-1-oxa-3,8-diazaspiro[4.5]decan-3-yl]-4H-pyrido[3,2-b][1,4]oxazin-3-one dihydrochloride] | 0.25
20 | NCCn1nc2cc(F)c3c(c2n1)CC(CN1CCC2(CC1)CN(c1ccc4c(n1)NC(=O)CO4)C(=O)O2)C3 (single isomer, unassigned) [Example 171, 6-[2-Oxo-8-[[2-(2-aminoethyl)-5-fluoro-7,8-dihydro-6H-cyclopenta[e]benzotriazol-7-yl]methyl]-1-oxa-3,8-diazaspiro[4.5]decan-3-yl]-4H-pyrido[3,2-b][1,4]oxazin-3-one dihydrochloride] | ≤0.06
